Experimental data taken from ChEMBL document CHEMBL3826874, “Exploring new scaffolds for angiotensin II receptor antagonism” (Bioorg Med Chem, 2016).

What was measured:
[1] = molecular target: T1, Type-1 angiotensin II receptor (Homo sapiens) (UniProt P30556); assay: (§1) Displacement of [125I-Sar1-Ile8]Ang2 from human AT1 receptor expressed in HEK293 cell membrane incubated for 1 hr by gamma counting method; type: cell membranes
T1 sequence (whole entry): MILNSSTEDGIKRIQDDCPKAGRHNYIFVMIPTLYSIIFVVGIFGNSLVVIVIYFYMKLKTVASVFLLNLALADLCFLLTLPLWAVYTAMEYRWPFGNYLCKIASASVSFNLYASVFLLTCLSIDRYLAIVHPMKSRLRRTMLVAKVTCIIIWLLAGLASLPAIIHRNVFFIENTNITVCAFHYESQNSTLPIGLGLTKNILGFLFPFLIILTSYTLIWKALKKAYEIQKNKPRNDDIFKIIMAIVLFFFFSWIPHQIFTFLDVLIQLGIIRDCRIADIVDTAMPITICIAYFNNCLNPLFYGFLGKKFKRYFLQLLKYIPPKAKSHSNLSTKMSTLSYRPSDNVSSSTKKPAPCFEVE

[2] = molecular target: T2, Type-1 angiotensin II receptor (Homo sapiens, UniProt P30556); assay: as §1; type: cell membranes
T2 sequence (P30556 whole entry): T1 sequence (whole entry)

| inhibition [1] | IC50 ([2]; read-out: pIC50 (converted)) | IC50 ([2]; read-out: IC50) | Structure (SMILES) |
| --- | --- | --- | --- |
| Dose-dependent effect | 2570 nM |  | CN(Cc1cn(-c2ccccc2)nc1-c1ccc(F)cc1)C(=O)CCC(=O)O |
| Dose-dependent effect | 2190 nM |  | Cc1ccc(C)c(NC(=O)CN(C)C(=O)c2ccc(S(=O)(=O)N3CCCCCC3)cc2)c1 |
| Dose-dependent effect |  | 199 nM | CN(Cc1cn(-c2ccccc2)nc1-c1ccc(Cl)cc1)C(=O)CCC(=O)O |
| Dose-dependent effect | 2090 nM |  | Cc1ccc(CN(c2ccc(C(=O)NCc3ccccn3)cc2)S(C)(=O)=O)cc1 |
